Columns and labels:
Stat5 = test: In vitro Stat5 DNA-binding activity assay, EMSA with MGFe probe; design: species or system mouse; settings: pre-incubated 30 min before MGFe probe
Description: FIGS. 1A-1E. Inhibition of in vitro Stat3 DNA-binding activity by a platinum complex. Nuclear extracts or cell lysates containing activated Stat1, Stat3 and Stat5, or E2F1 prepared from NIH3T3/hEGFR that are stimulated with EGF or Sf-9 insect cells that are infected with baculovirus expressing Stat1, Stat3, Stat5, or E2F1, respectively, were treated with or without the indicated concentrations of platinum complex, PLATINUM-401 or Cisplatin, for 30 min at room temperature prior to incubation with radiolabeled oligonucleotide probes, and subjected to EMSA analysis. (FIG. 1A) (i) Stat1 and Stat3 binding activities to hSIE probe, (ii) Stat1 and Stat5 binding activities to MGFe probe, and (iii) plot of % oligonucleotide probe-STAT:STAT complexes versus concentration of PLATINUM-401. […] Positions of STAT: STAT-DNA complexes in gel are labeled. In (A) to (C), the control lanes represent DMSO (vehicle)-treatment.
Nuclear extract preparation and gel shift assays—Nuclear extract preparation from NIH3T3 stimulated by rhIL-6, NIH3T3/hEGFR stimulated by rhEGF, v-Src-transformed fibroblasts (NIH3T3/v-Src) or tumor cell lines and electrophoretic mobility shift assay were carried out as previously described (Turkson et al., 1998; Garcia et al., 1997; Yu et al., 1995). […]

NFκB-Luc = test: NFκB promoter-driven luciferase reporter assay; assay type: cell-based; settings: transient transfection in mouse fibroblasts
Description: FIGS. 3A-3D. Inhibition of Stat3-mediated gene expression by PLATINUM-401. (FIG. 3A) and (FIG. 3B) v-Src-transformed mouse fibroblasts that stably express Stat3-dependent (NIH3T3/v-Src/pLucTKS3) and Stat3-independent (NIH3T3/v-Src/pRLSRE) luciferase reporters or β-galactosidase (β-gal), as well as normal mouse fibroblast (NIH3T3) transiently transfected with pLucTKS3, pGL2-VEGF-Luc, NFkB-Luc or pLucSRE together with or without v-Src were treated with or without PLATINUM-401 for 48 h. Cytosolic extracts were then prepared from cells for luciferase and […] activities measurements. […]
Cell proliferation and TUNEL assays—Proliferating cells were first treated with or without PLATINUM-401 for up to 48 h. A portion of cells were harvested for BrdU incorporation following the manufacturer's (BD Biosciences Pharmingen, San Diego, Calif.) instructions and analyzed by flow cytometry. Harvested cells were also analyzed for apoptosis via detection of TdT-mediated dUTP nick-end labeling (TUNEL) assay using Apoptosis Detection Systems Fluorescein according to the manufacturer's (Roche, Indianapolis, Ind.) instructions. […]
To further investigate the activities of PLATINUM-401, the inventors treated malignant cells and measured effects on Stat3 signaling. […]

SMILES: CC(O)CN1CCN(CC(C)O)CC1 (centres unmarked) [PLATINUM-401]
- effect on DNA-binding activity of Stat5:Stat5 dimer (Stat5): does not significantly affect
- induction of NFκB promoter-driven luciferase reporter activity (NFκB-Luc): no inhibitory effects

Reference: patent US11571418B2, “Platinum compounds that inhibit constitutive STAT3 signaling and induce cell cycle arrest and apoptosis of malignant cells” (H. LEE MOFFITT CANCER CENTER AND RESEARCH INSTITUTE, INC., priority 2011, dated 2023)
